Legend:
[1] = tested on: interferon (α) (IFN-α); assay: Cytokine induction in human cells: IFN-α secreted by PBMC into culture media (ELISA); format: cell-based; conditions: for Minimum Effective Concentration IFN / Maximal Response IFN / minimal effective concentration: human PBMC; for Minimum Effective Concentration IFN / Maximal Response IFN: median where tested in more than one experiment; for minimal effective concentration: lowest tested concentration inducing IFN-α over usually 20 pg/mL, median where more than one experiment, read-out: Minimum Effective Concentration (μM) IFN; for Maximal Response (pg/mL) IFN: maximal response in dose response curve, median
Description: (§1) Cytokine Induction in Human Cells
(§2) An in vitro human blood cell system is used to assess cytokine induction. Activity is based on the measurement of interferon (α) and tumor necrosis factor (α) (IFN-α and TNF-α, respectively) secreted into culture media as described by Testerman et. al. in “Cytokine Induction by the Immunomodulators Imiquimod and S-27609”, Journal of Leukocyte Biology, 58, 365-372 (September, 1995).
(§3) Blood Cell Preparation for Culture
(§4) Whole blood from healthy human donors is collected by venipuncture into vacutainer tubes or syringes containing EDTA. Peripheral blood mononuclear cells (PBMC) are separated from whole blood by density gradient centrifugation using HISTOPAQUE-1077 (Sigma, St. Louis, Mo.) or Ficoll-Paque Plus (Amersham Biosciences Piscataway, N.J.). Blood is diluted 1:1 with Dulbecco's Phosphate Buffered Saline (DPBS) or Hank's Balanced Salts Solution (HBSS). Alternately, whole blood is placed in Accuspin (Sigma) or LeucoSep (Oreiner Bio-One, Inc., Longwood, Fla.) centrifuge frit tubes containing density gradient medium. The PBMC layer is collected and washed twice with DPBS or HBSS and re-suspended at 4×10^6 cells/mL in RPMI complete. The PBMC suspension is added to 96 well flat bottom sterile tissue culture plates containing an equal volume of RPMI complete media containing test compound.
(§5) The compounds are solubilized in dimethyl sulfoxide (DMSO). The DMSO concentration should not exceed a final concentration of 1% for addition to the culture wells. The compounds are generally tested at concentrations ranging from 30-0.014 μM. Controls include cell samples with media only, cell samples with DMSO only (no compound), and cell samples with reference compound.
(§6) The solution of test compound is added at 60 μM to the first well containing RPMI complete and serial 3 fold dilutions are made in the wells. The PBMC suspension is then added to the wells in an equal volume, bringing the test compound concentrations to the desired range (usually 30-0.014 μM). The final concentration of PBMC suspension is 2×10^6 cells/mL. The plates are covered with sterile plastic lids, mixed gently and then incubated for 18 to 24 hours at 37° C. in a 5% carbon dioxide atmosphere.
(§7) Following incubation the plates are centrifuged for 10 minutes at 1000 rpm (approximately 200×g) at 4° C. The cell-free culture supernatant is removed and transferred to sterile polypropylene tubes. Samples are maintained at −30 to −70° C. until analysis. The samples are analyzed for IFN-α by ELISA and for TNF-α by IGEN/BioVeris Assay.
(§8) Interferon (α) and Tumor Necrosis Factor (α) Analysis
IFN-α concentration is determined with a human multi-subtype calorimetric sandwich ELISA (Catalog Number 41105) from PBL Biomedical Laboratories, Piscataway, N.J. Results are expressed in pg/mL.
(§9) In total, the data output of the assay consists of concentration values of TNF-α and IFN-α (y-axis) as a function of compound concentration (x-axis).
Analysis of the data has two steps. First, the greater of the mean DMSO (DMSO control wells) or the experimental background (usually 20 pg/mL for IFN-α and 40 pg/mL for TNF-α) is subtracted from each reading. If any negative values result from background subtraction, the reading is reported as “*”, and is noted as not reliably detectable. In subsequent calculations and statistics, “*”, is treated as a zero. Second, all background subtracted values are multiplied by a single adjustment ratio to decrease experiment to experiment variability. The adjustment ratio is the area of the reference compound in the new experiment divided by the expected area of the reference compound based on the past 61 experiments (unadjusted readings). […] The reference compound used is 2-[4-amino-2-ethoxymethyl-6,7,8,9-tetrahydro-α,α-dimethyl-1H-imidazo[4,5-c]quinolin-1-yl]ethanol hydrate (U.S. Pat. No. 5,352,784; Example 91) and the expected area is the sum of the median dose values from the past 61 experiments. […]

[2] = tested on: tumor necrosis factor (α) (TNF-α); assay: Cytokine induction in human cells: TNF-α secreted by PBMC into culture media (ORIGEN M-Series immunoassay); format: cell-based; parameters: key to Maximal Response (pg/mL) TNF / Maximal Response TNF: If any negative values result from background subtraction, the reading is reported as “*”, and is noted as not reliably detectable; conditions: for Minimum Effective Concentration TNF / Maximal Response TNF / minimal effective concentration: human PBMC; for Minimum Effective Concentration TNF: median where tested in more than one experiment; for Maximal Response TNF / Maximal Response (pg/mL) TNF: median; for minimal effective concentration: lowest tested concentration inducing TNF-α over usually 40 pg/mL, median where more than one experiment, read-out: Minimum Effective Concentration (μM) TNF; for Maximal Response (pg/mL) TNF: maximal response in dose response curve
Description: as §1, §2, §3, §4, §5, §6, §7, §8
The TNF-α concentration is determined by ORIGEN M-Series Immunoassay and read on an IGEN M-8 analyzer from BioVeris Corporation, formerly known as IGEN International, Gaithersburg, Md. The immunoassay uses a human TNF-α capture and detection antibody pair (Catalog Numbers AHC3419 and AHC3712) from Biosource International, Camarillo, Calif. Results are expressed in pg/mL.
as §9
Analysis of the data has two steps. First, the greater of the mean DMSO (DMSO control wells) or the experimental background (usually 20 pg/mL for IFN-α and 40 pg/mL for TNF-α) is subtracted from each reading. If any negative values result from background subtraction, the reading is reported as “*”, and is noted as not reliably detectable. In subsequent calculations and statistics, “*”, is treated as a zero. Second, all background subtracted values are multiplied by a single adjustment ratio to decrease experiment to experiment variability. The adjustment ratio is the area of the reference compound in the new experiment divided by the expected area of the reference compound based on the past 61 experiments (unadjusted readings). […]

[3] = Table 11, * = TNF below experimental background of 40 pg/mL
[4] = Table 12, * = below the experimental background of 40 pg/mL
[5] = Table 10, * = below experimental background level
[6] = Table 7, background-subtracted, reference-adjusted
[7] = Table 8, background-subtracted, reference-adjusted

Row | SMILES | Maximal Response IFN ([1]; Table 11) | Minimum Effective Concentration IFN ([1]; Table 11) | Minimum Effective Concentration TNF ([2]; Table 11) | Maximal Response TNF [2, 3] | also measured
1 | CCOCc1nc2c(N)nc3cccnc3c2n1CC(C)(C)NS(C)(=O)=O [Analog 130, N-[2-(4-amino-2-ethoxoxymethyl-1H-imidazo[4,5-c][1,5]naphthyridin-1-yl)-1,1-dimethylethyl]methanesulfonamide] | – | – | – | – | Minimum Effective Concentration IFN ([1]; Table 12): 0.04 µM; Minimum Effective Concentration TNF ([2]; Table 12): 0.37 µM
2 | COCCc1nc2c(N)nc3ccccc3c2n1CCNC(=O)CC(C)C [Analog 106] | 1204 pg/mL | 0.12 µM | 3.33 µM | 5694 pg/mL | –
3 | Nc1nc2ccccc2c2c1nc(CCO)n2CCCCNS(=O)(=O)c1ccc(F)cc1 [Example 112] | 8361 pg/mL | 1.11 µM | 30 µM | 76 pg/mL | –
4 | COCCc1nc2c(N)nc3ccccc3c2n1CCCCNC(=O)N1CCOCC1 [Analog 57] | 8889 pg/mL | 0.014 µM | 0.04 µM | 3494 pg/mL | –
5 | CCc1nc2c(N)nc3ccccc3c2n1CCNS(C)(=O)=O [Analog 69] | 1610 pg/mL | 0.12 µM | 10 µM | 820 pg/mL | –
6 | COCCc1nc2c(N)nc3ccccc3c2n1CCCNC(=O)c1cc2ccccc2cn1 [Analog 110] | 647 pg/mL | 0.12 µM | 1.11 µM | 6169 pg/mL | –
7 | COCCc1nc2c(N)nc3ccccc3c2n1CCCCN [Analog 114] | 127231 pg/mL | 0.04 µM | 0.37 µM | 724 pg/mL | –
8 | COCCc1nc2c(N)nc3ccccc3c2n1CC(C)(C)CNC(=O)c1ccccc1 [Analog 96] | 2133 pg/mL | 0.014 µM | 0.014 µM | 1812 pg/mL | –
9 | CCOCc1nc2c(N)nc3cccnc3c2n1CC(C)(C)NC(=O)C1CCCCC1 [Analog 129, N-[2-(4-amino-2-ethoxymethyl-1H-imidazo[4,5-c][1,5]naphthyridin-1-yl)-1,1-dimethylethyl]cyclohexanecarboxamide] | – | – | – | – | Maximal Response IFN ([1]; Table 12): 1647 pg/mL; Maximal Response TNF [2, 4]: 8691 pg/mL
10 | Cc1cccc(-c2ccc3c(c2)nc(N)c2nc(CO)n(CC(C)(C)O)c23)c1 [Example 164] | – | – | – | – | minimal effective concentration ([1]; Table 10): 30 µM; Maximal Response (pg/mL) IFN [1, 5]: 87 pg/mL; minimal effective concentration ([2]; Table 10): >30 µM; Maximal Response (pg/mL) TNF [2, 5]: *
11 | CC(C)Cn1c(CCO)nc2c(N)nc3cc(-c4cccnc4)ccc3c21 [Example 158] | – | – | – | – | minimal effective concentration ([1]; Table 10): 0.37 µM; Maximal Response (pg/mL) TNF [2, 5]: 42 pg/mL
12 | Cc1nc2c(N)nc3ccccc3c2n1CC(C)(C)NS(C)(=O)=O [Analog 1, N-[2-(4-Amino-2-methyl-1H-imidazo[4,5-c]quinolin-1-yl)-1,1-dimethylethyl]methanesulfonamide] | – | – | – | – | Maximal Response (pg/mL) IFN [1, 6]: 1846 pg/mL; Maximal Response (pg/mL) TNF [2, 6]: 1518 pg/mL
13 | CCOCc1nc2c(N)nc3cc(-c4cncc(CO)c4)ccc3c2n1CC1CCN(C(=O)C(C)C)CC1 [Analog 44] | – | – | – | – | minimal effective concentration ([1]; Table 10): 0.04 µM; Maximal Response (pg/mL) IFN [1, 5]: 1382 pg/mL; minimal effective concentration ([2]; Table 10): 1.11 µM; Maximal Response (pg/mL) TNF [2, 5]: 3128 pg/mL
14 | CCCc1nc2c(N)nc3cc(-c4cccnc4)ccc3c2n1CCCCNC(=O)NC1CCCC1 [Analog 34] | – | – | – | – | minimal effective concentration ([1]; Table 10): 0.014 µM; Maximal Response (pg/mL) IFN [1, 5]: 649 pg/mL; minimal effective concentration ([2]; Table 10): 0.37 µM; Maximal Response (pg/mL) TNF [2, 5]: 9019 pg/mL
15 | Nc1nc2cc(-c3cccnc3)ccc2c2c1nc(CO)n2CCCCNC(=O)C1CCCC1 [Example 198] | – | – | – | – | Maximal Response (pg/mL) IFN [1, 5]: 2745 pg/mL; Maximal Response (pg/mL) TNF [2, 5]: 410 pg/mL
16 | COCCc1nc2c(N)nc3cccnc3c2n1CC(C)(C)O [Analog 7, 1-[4-amino-2-(2-methoxyethyl)-1H-imidazo[4,5-c][1,5]naphthyridin-1-yl]-2-methylpropan-2-ol] | – | – | – | – | Maximal Response (pg/mL) IFN [1, 7]: 4143 pg/mL; Maximal Response IFN ([1]; Table 12): 3142 pg/mL; Maximal Response (pg/mL) TNF [2, 7]: 7762 pg/mL; Maximal Response TNF [2, 4]: 7503 pg/mL
17 | CCOCc1nc2c(N)nc3ccccc3c2n1CC(C)(C)CNC(=O)Nc1ccccc1 [Analog 91] | 1133 pg/mL | 0.014 µM | 0.04 µM | 3618 pg/mL | –
18 | CCCc1nc2c(N)nc3cc(-c4cccnc4)ccc3c2n1CCCCNC(=O)C1CCCC1 [Analog 36] | – | – | – | – | minimal effective concentration ([1]; Table 10): 0.12 µM; Maximal Response (pg/mL) IFN [1, 5]: 521 pg/mL; minimal effective concentration ([2]; Table 10): 0.37 µM; Maximal Response (pg/mL) TNF [2, 5]: 2222 pg/mL
19 | COCCc1nc2c(N)nc3ccccc3c2n1CC(C)(C)CNS(C)(=O)=O [Analog 67] | 1805 pg/mL | 0.014 µM | 0.04 µM | 5467 pg/mL | –
20 | COCCc1nc2c(N)nc3ccccc3c2n1CCNS(C)(=O)=O [Analog 72] | 5858 pg/mL | 0.014 µM | 0.04 µM | 8547 pg/mL | –
21 | CCc1nc2c(N)nc3ccccc3c2n1CC(C)(C)CN [Analog 99] | 405 pg/mL | 0.04 µM | 0.37 µM | 13846 pg/mL | –
22 | CS(=O)(=O)CCCCCn1c(CCO)nc2c(N)nc3ccccc3c21 [Example 125] | 8361 pg/mL | 0.37 µM | >30 µM | * | –
23 | COCc1nc2c(N)nc3ccccc3c2n1CC(C)(C)CNC(=O)c1ccccc1 [Analog 94] | 2518 pg/mL | 1.11 µM | 3.33 µM | 9721 pg/mL | –

From US8846710B2, “Method of preferentially inducing the biosynthesis of interferon” (3M Innovative Properties Company, priority 2005, dated 2014)
